Data published in patent US20160115200A1, “New Use for JNK Inhibitor Molecules for Treatment of Various Diseases” (XIGEN INFLAMMATION LTD., priority 2013, published 2016).
Square brackets hold non-standard residues; d marks the D form. Peptide text beside a SMILES is read from it.

Key:
[1] = test system: endotoxins-induced uveitis albino rat model; experiment: Endotoxins-induced uveitis (EIU), single intravenous injection, clinical scoring 24 h after LPS; type: in vivo; parameters: key to EIU clinical score, median: clinical score per eye, 0 to 4 scale; settings: for EIU clinical score, mean±SEM / EIU clinical score, median: 24 hours after LPS
Protocol: The aim of this study was to determine the effects of single intravenous injections of SEQ ID NO: 172 (0.015, 0.18, and 1.80 mg/kg) on the inflammatory response in an endotoxins-induced uveitis albino rat model and to compare these affects to those obtained with prior art JNK inhibitor of SEQ ID NO: 197 (2 mg/kg). As a further control served phosphate sodic dexamethasone.
Sixty (60) male Lewis rats were randomly divided into six (6) groups of ten (10) animals each. EIU was induced by footpad injection of lipopolysaccharide (LPS, 1 mg/kg). NaCl (0.9%), SEQ ID NO: 197 at 2 mg/kg and SEQ ID NO: 172 at three concentrations (1.80 mg/kg, 0.18 mg/kg and 0.015 mg/kg) were administered by intravenous injection. Phosphate sodic dexamethasone (20 μg/eye) was administered by sub-conjunctival injection in both eyes. 24 hours after LPS injection, inflammatory response was evaluated by clinical scoring.
The intensity of clinical ocular inflammation was scored on a scale from 0 to 4 for each eye: […]

[2] = test system: IMQ-induced psoriasis in BALB/c mice; experiment: Imiquimod-induced psoriasis in mice, ear histopathology; type: in vivo, mouse
Protocol: Female BALB/cAnNCrl mice (Charles River, age 8 to 10 weeks at study start) have been assigned to the following groups (treatment schedule):
In this experiment, two positive controls have been utilized. Firstly, Prednisolone at 10 mg/kg (vehicle: 1% Hydroxyethylcellulose, 0.25% Polysorbate 80, and 0.05% Antifoam in purified water) has been dosed daily and orally (group “Prednisolone”). Secondly, Dexamethasone has been administered at 0.5 mg/kg (vehicle: sterile 0.9% NaCl) on days 1, 4 and 7 via intravenous route.
On day 8, animals have been sacrificed and the tissue (ear) has been fixed in 10% neutral buffered formalin. For histopathology hematoxylin-and-eosin-stained sections (cross cut) have been prepared and microscopic evaluation on the collected tissues from all animals has been performed. Methods and end-points for histopathology were similarly described in the van der Fits (2009) paper in that inflammation, epidermal hyperplasia, epidermal hyperkeratosis (rather than parakeratosis) were observed and recorded for severity grade, whereby the respective methodology from Van der Fits et al. (The Journal of Immunology 2009, 182, P. 5836-5845) is hereby incorporated by reference. Histopathology grading scores were excluded for either skin or ear in animals with secondary inflammatory processes (full thickness epidermal ulcers). Scores were averaged by group and standard deviation and statistical significance were calculated. […] Formalin-fixed, paraffin embedded skin from the dorsal surface of the mouse (BALB/c) was stained with hematoxylin and eosin (H&E) stain and assessed microscopically. An important difference from the above reference and to describe in more detail the observations of the present study: Hyperkeratosis can be defined specifically as orthokeratotic (no retained nuclei) or parakeratotic (retained nuclei). Either can occur normally in various anatomical locations and depending on species; however, both conditions are well defined in particular disease states. The van der Fits paper describes their Imiquimod (IMQ)-induced psoriasis model as causing parakeratotic hyperkeratosis similar to what is seen in the human condition, and that was a defined end-point for this study. However, the Danilenko et al. (Veterinary Pathology 2008 45:563) has shown that many rodent psoriasis models have orthokeratotic hyperkeratosis. […] The more general term ‘hyperkeratosis’ was used for grading end-points and describe in the text what type was seen (primarily orthokeratotic).
1=MI=minimal 2=SL=slight 3=M0=moderate 4=MA=marked 5=SE=severe

With `CC(C)C[C@H](NC(=O)[C@H](CC(N)=O)NC(=O)[C@H](CC(C)C)NC(=O)[C@@H](NC(=O)[C@@H](C)NC(=O)[C@@H]1CCCN1C(=O)[C@H](CCCNC(=N)N)NC(=O)[C@@H](CCCCN)NC(=O)[C@@H]1CCCN1C(=O)[C@H](CCCNC(=N)N)NC(=O)[C@@H](CCCNC(=N)N)NC(=O)[C@H](CCCNC(=N)N)NC(=O)[C@H](CCCNC(=N)N)NC(=O)[C@H](CCC(N)=O)NC(=O)[C@@H](CCCNC(=N)N)NC(=O)[C@H](CCCNC(=N)N)NC(=O)[C@H](CCCCN)NC(=O)[C@H](CCCCN)NC(=O)[C@H](N)CCCNC(=N)N)[C@@H](C)O)C(=O)N[C@H](Cc1ccccc1)C(N)=O` [SEQ ID NO: 172, rKKRrQRRrRPkRPaTLNLf] (H-[dR]KKR[dR]QRR[dR]RP[dK]RP[dA]TLNL[dF]-NH2) the “EIU clinical score, mean±SEM” value ([1]; 0.015 mg/kg i.v.) was 2.3±0.3, the “EIU clinical score, median” value ([1]; 0.015 mg/kg i.v.) was 2 and the “EIU clinical score, mean±SEM” value ([1]; 0.18 mg/kg i.v.) was 2.4±0.3. For the same compound, the “EIU clinical score, median” value ([1]; 0.18 mg/kg i.v.) was 2, the “EIU clinical score, mean±SEM” value ([1]; 1.80 mg/kg i.v.) was 2.1±0.3 and the “EIU clinical score, median” value ([1]; 1.80 mg/kg i.v.) was 2. The “endotoxin-induced inflammation in the anterior chamber” value ([1]; intravenously injected at 0.015, 0.18, 1.80 mg/kg) was “also reduced the endotoxin-induced inflammation in the anterior chamber”, the “inflammation of the ear (average histopathology grade) vs vehicle-IMQ group” value ([2]; high-dose 2 mg/kg IV days 1, 4, 7) was “decreased inflammation of the ear” and the “epidermal hyperkeratosis of the ear, average grades vs vehicle-IMQ group” value ([2]; low-dose 0.02 mg/kg IV days 1, 4, 7) was “minimally decreased average grades”. For the same compound, the “inflammation of the ear (average histopathology grade) vs vehicle-IMQ group” value ([2]; mid-dose 0.2 mg/kg IV days 1, 4, 7, statistically significant, 0.2 mg/kg) was “decreased inflammation of the ear”, the “inflammation of the ear (average histopathology grade) vs vehicle-IMQ group” value ([2]; mid-dose 0.2 mg/kg IV days 1, 4, 7, statistically significant, listed as XG-104, 0.2 mg/kg) was “significant differences from the vehicle control group” and the “epidermal hyperplasia of the ear vs vehicle-IMQ group” value ([2]; mid-dose 0.2 mg/kg IV, not statistically significant) was “Minimal decreases in epidermal hyperplasia of the ear”.
